From ChEMBL document CHEMBL4433224, “Hybridization of Fluoro-amodiaquine (FAQ) with Pyrimidines: Synthesis and Antimalarial Efficacy of FAQ-Pyrimidines” (ACS Med Chem Lett, 2019)
Activity calls are given as the source filed them. No cut-off for these calls is given here.

Legend:
Plasmodium falciparum [1] = assay: microbe, parasite or virus in culture; details: NF54, 48 h
Description: Antiplasmodial activity against chloroquine-sensitive Plasmodium falciparum NF54 incubated for 48 hrs by parasite lactate dehydrogenase assay

Plasmodium falciparum [2] = assay: microbe, parasite or virus in culture; details: Dd2, 48 h
Description: Antiplasmodial activity against chloroquine-resistant Plasmodium falciparum Dd2 incubated for 48 hrs by parasite lactate dehydrogenase assay

Heme [3] = assay: Binding affinity to monomeric heme assessed as mole fraction for 1:1 binding stoichiometry with monomeric heme at pH 5.6 by spectrophotometric titration analysis
Plasmodium berghei [4] = assay: Antimalarial activity against Plasmodium berghei infected in mouse assessed as suppression in parasitemia at 11.1 mg/kg, ip dosed once daily on days 0, 1, and 2 days post infection measured on day 7 post infection relative to untreated control; format: functional
Heme [5] = assay: Binding affinity to monomeric heme assessed as mole fraction for 1:1 binding stoichiometry with monomeric heme at pH 7.4 by spectrophotometric titration analysis
Plasmodium berghei [6] = assay: Antimalarial activity against Plasmodium berghei infected in mouse assessed as suppression in parasitemia at 33.3 mg/kg, ip dosed once daily on days 0, 1, and 2 days post infection measured on day 5 post infection relative to untreated control; format: functional
Plasmodium berghei [7] = assay: Antimalarial activity against Plasmodium berghei infected in mouse assessed as suppression in parasitemia at 33.3 mg/kg, ip dosed once daily on days 0, 1, and 2 days post infection measured on day 7 post infection relative to untreated control; format: functional
Plasmodium berghei [8] = assay: Antimalarial activity against Plasmodium berghei infected in mouse assessed as suppression in parasitemia at 11.1 mg/kg, ip dosed once daily on days 0, 1, and 2 days post infection measured on day 5 post infection relative to untreated control; format: functional
Plasmodium berghei [9] = assay: Antimalarial activity against Plasmodium berghei infected in mouse assessed as parasitemia cure at 11.1 mg/kg, ip dosed once daily on days 0, 1, and 2 days post infection measured on day 28 post infection; format: functional, organism-based
Plasmodium berghei [10] = assay: Antimalarial activity against Plasmodium berghei infected in mouse assessed as mean survival time at 33.3 mg/kg, ip dosed once daily on days 0, 1, and 2 days post infection measured on day 28 post infection (reference value: 13.2 days); format: functional
Heme [11] = assay: Binding affinity to monomeric heme assessed as decrease in the Soret band at pH 7.4 by spectrophotometric titration analysis
Plasmodium berghei [12] = assay: Antimalarial activity against Plasmodium berghei infected in mouse assessed as host survival at 33.3 mg/kg, ip dosed once daily on days 0, 1, and 2 days post infection measured on day 28 post infection relative to untreated control; format: functional, organism-based
Plasmodium berghei [13] = assay: Antimalarial activity against Plasmodium berghei infected in mouse assessed as mean survival time at 11.1 mg/kg, ip dosed once daily on days 0, 1, and 2 days post infection measured on day 28 post infection (reference value: 13.2 days); format: functional
Heme [14] = assay: Binding affinity to monomeric heme assessed as decrease in the Soret band at pH 5.6 by spectrophotometric titration analysis
[15] = Intrinsic clearance human liver microsomes in the presence of NADPH; format: ADME, Microsome; details: read-out: CLH
[16] = Half life human liver microsomes in the presence of NADPH; format: ADME, Microsome
in vitro [17] = details: hamster, CHO cells versus Plasmodium falciparum NF54
Description: Selectivity index, ratio of IC50 for CHO cells to IC50 for antiplasmodial activity against chloroquine-sensitive Plasmodium falciparum NF54

in vitro [18] = details: hamster, CHO cells versus Plasmodium falciparum Dd2
Description: Selectivity index, ratio of IC50 for CHO cells to IC50 for antiplasmodial activity against chloroquine-resistant Plasmodium falciparum Dd2

CHO = assay: Cytotoxicity in CHO cells assessed as reduction in cell viability; format: cell-based; details: Cricetulus griseus
Plasmodium falciparum [19] = assay: Potency index, ratio of IC50 for chloroquine to IC50 for test compound for antiplasmodial activity against chloroquine-resistant Plasmodium falciparum Dd2 incubated for 48 hrs by parasite lactate dehydrogenase assay; format: functional
Plasmodium falciparum [20] = assay: Potency index, ratio of IC50 for artemisinin to IC50 for test compound for antiplasmodial activity against chloroquine-resistant Plasmodium falciparum Dd2 incubated for 48 hrs by parasite lactate dehydrogenase assay; format: functional
Plasmodium berghei [21] = assay: Antimalarial activity against Plasmodium berghei infected in mouse assessed as parasitemia cure at 33.3 mg/kg, ip dosed once daily on days 0, 1, and 2 days post infection measured on day 28 post infection; format: functional, organism-based
Plasmodium berghei [22] = assay: Antimalarial activity against Plasmodium berghei infected in mouse assessed as host survival at 11.1 mg/kg, ip dosed once daily on days 0, 1, and 2 days post infection measured on day 28 post infection relative to untreated control; format: functional, organism-based
Plasmodium berghei [23] = assay: Antimalarial activity against Plasmodium berghei infected in mouse assessed as suppression in parasitemia at 33.3 mg/kg, po dosed once daily on days 0, 1, and 2 days post infection measured on day 7 post infection relative to untreated control; format: functional
Plasmodium berghei [24] = assay: Antimalarial activity against Plasmodium berghei infected in mouse assessed as suppression in parasitemia at 11.1 mg/kg, po dosed once daily on days 0, 1, and 2 days post infection measured on day 7 post infection relative to untreated control; format: functional
Plasmodium berghei [25] = assay: Antimalarial activity against Plasmodium berghei infected in mouse assessed as host survival at 33.3 mg/kg, po dosed once daily on days 0, 1, and 2 days post infection measured on day 28 post infection relative to untreated control; format: functional, organism-based
Plasmodium berghei [26] = assay: Antimalarial activity against Plasmodium berghei infected in mouse assessed as mean survival time at 11.1 mg/kg, po dosed once daily on days 0, 1, and 2 days post infection measured on day 28 post infection (reference value: 13.2 days); format: functional
Plasmodium berghei [27] = assay: Antimalarial activity against Plasmodium berghei infected in mouse assessed as suppression in parasitemia at 33.3 mg/kg, po dosed once daily on days 0, 1, and 2 days post infection measured on day 5 post infection relative to untreated control; format: functional
Plasmodium berghei [28] = assay: Antimalarial activity against Plasmodium berghei infected in mouse assessed as mean survival time at 33.3 mg/kg, po dosed once daily on days 0, 1, and 2 days post infection measured on day 28 post infection (reference value: 13.2 days); format: functional
Plasmodium berghei [29] = assay: Antimalarial activity against Plasmodium berghei infected in mouse assessed as parasitemia cure at 11.1 mg/kg, po dosed once daily on days 0, 1, and 2 days post infection measured on day 28 post infection; format: functional, organism-based
Plasmodium berghei [30] = assay: Antimalarial activity against Plasmodium berghei infected in mouse assessed as host survival at 11.1 mg/kg, po dosed once daily on days 0, 1, and 2 days post infection measured on day 28 post infection relative to untreated control; format: functional, organism-based
Plasmodium berghei [31] = assay: Antimalarial activity against Plasmodium berghei infected in mouse assessed as suppression in parasitemia at 11.1 mg/kg, po dosed once daily on days 0, 1, and 2 days post infection measured on day 5 post infection relative to untreated control; format: functional
Plasmodium berghei [32] = assay: Antimalarial activity against Plasmodium berghei infected in mouse assessed as parasitemia cure at 33.3 mg/kg, po dosed once daily on days 0, 1, and 2 days post infection measured on day 28 post infection; format: functional, organism-based

Cc1cc(NCc2cc(Nc3ccnc4cc(Cl)ccc34)ccc2F)nc(Cl)n1
IC50 (Plasmodium falciparum [1]): 183 nM | IC50 (Plasmodium falciparum [2]): 214 nM

C[C@H]1[C@H](OC(=O)CCC(=O)O)O[C@@H]2O[C@@]3(C)CC[C@H]4[C@H](C)CC[C@@H]1[C@@]24OO3 [ARTESUNATE]
IC50 (Plasmodium falciparum [1]): 10 nM | IC50 (Plasmodium falciparum [2]): 13 nM

Cc1cc(N2CCCC2)nc(NCc2cc(Nc3ccnc4cc(Cl)ccc34)ccc2F)n1
IC50 (Plasmodium falciparum [1]): 89 nM | IC50 (Plasmodium falciparum [2]): 74.9 nM

Cc1cc(NCc2cc(Nc3ccnc4cc(Cl)ccc34)ccc2F)nc(N2CCN(C)CC2)n1
IC50 (Plasmodium falciparum [1]): 12.5 nM | Activity (mole fraction) (Heme [3]): 0.5 | Activity (Plasmodium berghei [4]): 92.9% | Activity (mole fraction) (Heme [5]): 0.5 | Activity (Plasmodium berghei [6]): 100% | Activity (Plasmodium berghei [7]): 100% | Activity (Plasmodium berghei [8]): 91.9% | Activity (Plasmodium berghei [9]): inactive | MST (Plasmodium berghei [10]): 28 days | IC50 (Plasmodium falciparum [2]): 5.24 nM | Activity (Heme [11]): Active | Activity (Plasmodium berghei [12]): Active | MST (Plasmodium berghei [13]): 19.8 days | Activity (Heme [14]): Active | microsomal CLint [15]: 82.8 µL/min/mg | half-life [16]: 16.7 min

Cc1cc(NCc2cc(Nc3ccnc4cc(Cl)ccc34)ccc2F)nc(N2CCCCCC2)n1
IC50 (Plasmodium falciparum [1]): 16.9 nM | IC50 (Plasmodium falciparum [2]): 27.2 nM

Cc1cc(N2CCN(C)CC2)nc(NCc2cc(Nc3ccnc4cc(Cl)ccc34)ccc2F)n1
IC50 (Plasmodium falciparum [1]): 15.3 nM | selectivity ratio (in vitro [17]): 3800 | selectivity ratio (in vitro [18]): 3160 | IC50 (Plasmodium falciparum [2]): 18.4 nM | IC50 (CHO): 58200 nM

N#Cc1cc(Nc2ccnc3cc(Cl)ccc23)ccc1F
IC50 (Plasmodium falciparum [1]): > 3360 nM | IC50 (Plasmodium falciparum [2]): 3200 nM

Cc1cc(NCc2cc(Nc3ccnc4cc(Cl)ccc34)ccc2F)nc(N2CCCCC2)n1
IC50 (Plasmodium falciparum [1]): 13.8 nM | IC50 (Plasmodium falciparum [2]): 17.2 nM

Cc1cc(N2CCSCC2)nc(NCc2cc(Nc3ccnc4cc(Cl)ccc34)ccc2F)n1
IC50 (Plasmodium falciparum [1]): 7.47 nM | selectivity ratio (in vitro [17]): 362 | selectivity ratio (in vitro [18]): 169 | IC50 (Plasmodium falciparum [2]): 16 nM | IC50 (CHO): 2710 nM

Cc1cc(N2CCCCC2)nc(NCc2cc(Nc3ccnc4cc(Cl)ccc34)ccc2F)n1
IC50 (Plasmodium falciparum [1]): 13.4 nM | Activity (Plasmodium berghei [4]): 100% | selectivity ratio (in vitro [17]): 237 | Activity (Plasmodium berghei [6]): 100% | Activity (Plasmodium berghei [7]): 100% | Activity (Plasmodium berghei [8]): 100% | Activity (Plasmodium berghei [9]): inactive | selectivity ratio (in vitro [18]): 680 | MST (Plasmodium berghei [10]): 28 days | IC50 (Plasmodium falciparum [2]): 4.69 nM | Activity (Plasmodium berghei [12]): Active | Ratio IC50 (Plasmodium falciparum [19]): 47.3 | Ratio IC50 (Plasmodium falciparum [20]): 2.8 | MST (Plasmodium berghei [13]): 28 days | Activity (Plasmodium berghei [21]): Active | Activity (Plasmodium berghei [22]): Active | IC50 (CHO): 3180 nM

Cc1cc(NCc2cc(Nc3ccnc4cc(Cl)ccc34)ccc2F)nc(N2CCOCC2)n1
IC50 (Plasmodium falciparum [1]): 26.7 nM | selectivity ratio (in vitro [17]): 544 | selectivity ratio (in vitro [18]): 437 | IC50 (Plasmodium falciparum [2]): 33.3 nM | IC50 (CHO): 14600 nM

Cc1cc(N2CCN(c3ccccc3)CC2)nc(NCc2cc(Nc3ccnc4cc(Cl)ccc34)ccc2F)n1
IC50 (Plasmodium falciparum [1]): 69.8 nM | selectivity ratio (in vitro [17]): 251 | selectivity ratio (in vitro [18]): 282 | IC50 (Plasmodium falciparum [2]): 62.2 nM | IC50 (CHO): 17500 nM

CCN(CC)CCCC(C)Nc1ccnc2cc(Cl)ccc12 (stereo unspecified) [CHLOROQUINE]
Activity (Plasmodium berghei [23]): 100% | Activity (Plasmodium berghei [24]): 99.2% | Activity (Plasmodium berghei [25]): Active | MST (Plasmodium berghei [26]): 28 days | Activity (Plasmodium berghei [27]): 100% | MST (Plasmodium berghei [28]): 28 days | Activity (Plasmodium berghei [29]): inactive | Activity (Plasmodium berghei [30]): Active | Activity (Plasmodium berghei [31]): 100%

Cc1cc(NCc2cc(Nc3ccnc4cc(Cl)ccc34)ccc2F)nc(N2CCSCC2)n1
IC50 (Plasmodium falciparum [1]): 22.8 nM | selectivity ratio (in vitro [17]): 664 | selectivity ratio (in vitro [18]): 459 | IC50 (Plasmodium falciparum [2]): 33.1 nM | IC50 (CHO): 15200 nM

CCN1CCN(c2nc(C)cc(NCc3cc(Nc4ccnc5cc(Cl)ccc45)ccc3F)n2)CC1
IC50 (Plasmodium falciparum [1]): 11.2 nM | IC50 (Plasmodium falciparum [2]): 7.63 nM

NCc1cc(Nc2ccnc3cc(Cl)ccc23)ccc1F
IC50 (Plasmodium falciparum [1]): 46.1 nM | selectivity ratio (in vitro [17]): 680 | selectivity ratio (in vitro [18]): 533 | IC50 (Plasmodium falciparum [2]): 58.7 nM | IC50 (CHO): 31300 nM

Cc1cc(Cl)nc(NCc2cc(Nc3ccnc4cc(Cl)ccc34)ccc2F)n1
IC50 (Plasmodium falciparum [1]): 231 nM | IC50 (Plasmodium falciparum [2]): 297 nM

Cc1cc(NCc2cc(Nc3ccnc4cc(Cl)ccc34)ccc2F)nc(N2CCCC2)n1
IC50 (Plasmodium falciparum [1]): 12.4 nM | selectivity ratio (in vitro [17]): 306 | selectivity ratio (in vitro [18]): 462 | IC50 (Plasmodium falciparum [2]): 8.23 nM | IC50 (CHO): 3800 nM

CCN(CC)Cc1cc(Nc2ccnc3cc(Cl)ccc23)ccc1O [AMODIAQUINE]
Activity (Plasmodium berghei [23]): 100% | Activity (Plasmodium berghei [24]): 100% | Activity (Plasmodium berghei [25]): Active | MST (Plasmodium berghei [26]): 28 days | Activity (Plasmodium berghei [27]): 100% | MST (Plasmodium berghei [28]): 28 days | Activity (Plasmodium berghei [32]): Active | Activity (Plasmodium berghei [30]): Active | microsomal CLint [15]: 431 µL/min/mg | half-life [16]: 5.4 min | Activity (Plasmodium berghei [31]): 100%

Cc1cc(N2CCOCC2)nc(NCc2cc(Nc3ccnc4cc(Cl)ccc34)ccc2F)n1
IC50 (Plasmodium falciparum [1]): 12.1 nM | selectivity ratio (in vitro [17]): 380 | selectivity ratio (in vitro [18]): 256 | IC50 (Plasmodium falciparum [2]): 17.9 nM | IC50 (CHO): 4590 nM

Cc1cc(N2CCCCCC2)nc(NCc2cc(Nc3ccnc4cc(Cl)ccc34)ccc2F)n1
IC50 (Plasmodium falciparum [1]): 148 nM | IC50 (Plasmodium falciparum [2]): 67.5 nM

Cc1cc(NCc2cc(Nc3ccnc4cc(Cl)ccc34)ccc2F)nc(N2CCN(c3ccccc3)CC2)n1
IC50 (Plasmodium falciparum [1]): 17.7 nM | selectivity ratio (in vitro [17]): 981 | selectivity ratio (in vitro [18]): 555 | IC50 (Plasmodium falciparum [2]): 31.3 nM | IC50 (CHO): 17400 nM

CCN1CCN(c2cc(C)nc(NCc3cc(Nc4ccnc5cc(Cl)ccc45)ccc3F)n2)CC1
IC50 (Plasmodium falciparum [1]): 28.9 nM | selectivity ratio (in vitro [17]): 2780 | selectivity ratio (in vitro [18]): 3430 | IC50 (Plasmodium falciparum [2]): 23.4 nM | IC50 (CHO): 80300 nM
